ChEMBL document CHEMBL1201862, “PubChem BioAssay data set” (2004)
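Five concentrations, 48 hours, 96-well plates. GI50 marks 50% less growth.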 The source made the active and inactive calls. Rule as the data show it: active = GI50 up to about 1.1 µM and inactive = higher.

Key:
Experiment in all cases: inhibition of tumour cell growth, NCI panel, 48 h
NCI-H23 = tested on: NCI-H23
M14 = tested on: M14
OVCAR-4 = tested on: OVCAR-4
M19-MEL = tested on: M19-MEL
SNB-19 = tested on: SNB-19
EKVX = tested on: EKVX
HOP-18 = tested on: HOP-18
SK-MEL-5 = tested on: SK-MEL-5
ACHN = tested on: ACHN
UACC-62 = tested on: UACC-62
RPMI-8226 = tested on: RPMI-8226
SW-620 = tested on: SW-620
UO-31 = tested on: UO-31
HL-60 = tested on: HL-60
RXF 393 = tested on: RXF 393
786-0 = tested on: 786-0
COLO 205 = tested on: COLO 205
OVCAR-5 = tested on: OVCAR-5
HOP-62 = tested on: HOP-62
KM12 = tested on: KM12
HT-29 = tested on: HT-29
DMS-273 = tested on: DMS-273
A498 = tested on: A498
HCT-15 = tested on: HCT-15
LOX IMVI = tested on: LOX IMVI
SF-295 = tested on: SF-295
CCRF-CEM = tested on: CCRF-CEM
Malme-3M = tested on: Malme-3M
SK-MEL-2 = tested on: SK-MEL-2
SK-MEL-28 = tested on: SK-MEL-28
IGROV-1 = tested on: IGROV-1
SN12C = tested on: SN12C
DLD-1 = tested on: DLD-1
SR = tested on: SR
SNB-78 = tested on: SNB-78
HCT-116 = tested on: HCT-116
SNB-75 = tested on: SNB-75
K562 = tested on: K562
SF-539 = tested on: SF-539
UACC-257 = tested on: UACC-257
SF-268 = tested on: SF-268
U-251 = tested on: U-251
XF498 = tested on: XF498
A549 = tested on: A549
LXFL 529 = tested on: LXFL 529
OVCAR-8 = tested on: OVCAR-8
HOP-92 = tested on: HOP-92
KM-20L2 = tested on: KM-20L2
TK-10 = tested on: TK-10
MOLT-4 = tested on: MOLT-4
CAKI-1 = tested on: CAKI-1
NCI-H522 = tested on: NCI-H522
NCI-H226 = tested on: NCI-H226
NCI-H460 = tested on: NCI-H460
DMS-114 = tested on: DMS-114
HCC 2998 = tested on: HCC 2998
OVCAR-3 = tested on: OVCAR-3
SK-OV-3 = tested on: SK-OV-3
RXF 631 = tested on: RXF 631

COC1CC(OS(=O)(=O)c2ccc(C)cc2)C(OC(=O)c2ccccc2)C(C)O1 (stereo not given)
GI50 (NCI-H23): > 10 µM (inactive) | GI50 (M14): > 10 µM (inactive) | GI50 (OVCAR-4): > 10 µM (inactive) | GI50 (M19-MEL): > 10 µM (inactive) | GI50 (SNB-19): > 10 µM (inactive) | GI50 (EKVX): > 10 µM (inactive) | GI50 (HOP-18): > 10 µM (inactive) | GI50 (SK-MEL-5): > 10 µM (inactive) | GI50 (ACHN): > 10 µM (inactive) | GI50 (UACC-62): > 100 µM (inactive) | GI50 (RPMI-8226): > 100 µM (inactive) | GI50 (SW-620): > 10 µM (inactive) | GI50 (UO-31): > 10 µM (inactive) | GI50 (HL-60): > 10 µM (inactive) | GI50 (RXF 393): 88.5 µM (inactive) | GI50 (786-0): > 10 µM (inactive) | GI50 (COLO 205): > 10 µM (inactive) | GI50 (OVCAR-5): > 10 µM (inactive) | GI50 (HOP-62): > 10 µM (inactive) | GI50 (KM12): > 10 µM (inactive) | GI50 (HT-29): > 10 µM (inactive) | GI50 (DMS-273): > 10 µM (inactive) | GI50 (A498): > 10 µM (inactive) | GI50 (HCT-15): > 10 µM | GI50 (LOX IMVI): > 10 µM (inactive) | GI50 (SF-295): > 100 µM (inactive) | GI50 (CCRF-CEM): > 10 µM (inactive) | GI50 (Malme-3M): > 10 µM (inactive) | GI50 (SK-MEL-2): > 10 µM (inactive) | GI50 (SK-MEL-28): > 10 µM (inactive) | GI50 (IGROV-1): > 10 µM (inactive) | GI50 (SN12C): > 10 µM (inactive) | GI50 (DLD-1): > 10 µM (inactive) | GI50 (SR): > 10 µM (inactive) | GI50 (SNB-78): > 10 µM (inactive) | GI50 (HCT-116): > 10 µM (inactive) | GI50 (SNB-75): 99.5 µM (inactive) | GI50 (K562): > 10 µM (inactive) | GI50 (SF-539): > 10 µM (inactive) | GI50 (UACC-257): > 10 µM (inactive) | GI50 (SF-268): > 100 µM (inactive) | GI50 (U-251): > 10 µM (inactive) | GI50 (XF498): > 100 µM (inactive) | GI50 (A549): > 10 µM (inactive) | GI50 (LXFL 529): > 10 µM (inactive) | GI50 (OVCAR-8): > 10 µM (inactive) | GI50 (HOP-92): 99.1 µM (inactive) | GI50 (KM-20L2): > 10 µM (inactive) | GI50 (TK-10): > 10 µM (inactive) | GI50 (MOLT-4): > 10 µM (inactive) | GI50 (CAKI-1): > 10 µM (inactive) | GI50 (NCI-H522): > 10 µM (inactive) | GI50 (NCI-H226): > 10 µM (inactive) | GI50 (NCI-H460): > 10 µM (inactive) | GI50 (DMS-114): > 100 µM (inactive) | GI50 (HCC 2998): > 10 µM (inactive) | GI50 (OVCAR-3): > 10 µM (inactive) | GI50 (SK-OV-3): > 10 µM (inactive)

CCCCCCCc1cc(OC(=O)c2c(C)cc(OC)cc2O)cc(O)c1C(=O)O
GI50 (NCI-H23): 20.3 µM (inactive) | GI50 (M14): 21.3 µM (inactive) | GI50 (OVCAR-4): 28.1 µM (inactive) | GI50 (M19-MEL): 23.6 µM (inactive) | GI50 (SNB-19): 26.4 µM (inactive) | GI50 (EKVX): 25.2 µM (inactive) | GI50 (SK-MEL-5): 21.6 µM (inactive) | GI50 (ACHN): 24.7 µM (inactive) | GI50 (UACC-62): 21 µM (inactive) | GI50 (RPMI-8226): 22.6 µM (inactive) | GI50 (SW-620): 26.2 µM (inactive) | GI50 (UO-31): 16.9 µM (inactive) | GI50 (HL-60): 26.5 µM (inactive) | GI50 (RXF 393): 22 µM (inactive) | GI50 (786-0): 19 µM (inactive) | GI50 (COLO 205): 20.7 µM (inactive) | GI50 (OVCAR-5): 16.6 µM (inactive) | GI50 (HOP-62): 18.5 µM (inactive) | GI50 (KM12): 23.1 µM (inactive) | GI50 (HT-29): 32.5 µM (inactive) | GI50 (DMS-273): 28.8 µM (inactive) | GI50 (A498): 19.1 µM (inactive) | GI50 (LOX IMVI): 21.3 µM (inactive) | GI50 (SF-295): 19.3 µM (inactive) | GI50 (CCRF-CEM): 24.7 µM (inactive) | GI50 (Malme-3M): 19.8 µM (inactive) | GI50 (SK-MEL-2): 19.1 µM (inactive) | GI50 (SK-MEL-28): 20.1 µM (inactive) | GI50 (IGROV-1): 22.7 µM (inactive) | GI50 (SN12C): 26.6 µM (inactive) | GI50 (DLD-1): 19.8 µM (inactive) | GI50 (SNB-78): 29.2 µM (inactive) | GI50 (SNB-75): 19 µM (inactive) | GI50 (K562): 33.9 µM (inactive) | GI50 (SF-539): 17.6 µM (inactive) | GI50 (UACC-257): 30.4 µM (inactive) | GI50 (RXF 631): 25.5 µM (inactive) | GI50 (SF-268): 20.2 µM (inactive) | GI50 (U-251): 17.9 µM (inactive) | GI50 (A549): 29.9 µM (inactive) | GI50 (LXFL 529): 18.2 µM (inactive) | GI50 (OVCAR-8): 27.1 µM (inactive) | GI50 (HOP-92): 26 µM (inactive) | GI50 (KM-20L2): 21.2 µM (inactive) | GI50 (TK-10): 28.7 µM (inactive) | GI50 (MOLT-4): 27.7 µM (inactive) | GI50 (CAKI-1): 22.5 µM (inactive) | GI50 (NCI-H522): 23.8 µM (inactive) | GI50 (NCI-H460): 19.3 µM (inactive) | GI50 (HCC 2998): 20.3 µM (inactive) | GI50 (OVCAR-3): 14.6 µM (inactive) | GI50 (SK-OV-3): 24.5 µM (inactive)
